The results in this text go back to EP4471048A1, “PEPTIDE INHIBITORS OF INTERLEUKIN-23 RECEPTOR” (Zealand Pharma A/S, priority 2023, dated 2024).

The test concerns the target T1, human IL-23R (Homo sapiens, UniProt Q5VWK5).
T1 sequence (Q5VWK5 22-629): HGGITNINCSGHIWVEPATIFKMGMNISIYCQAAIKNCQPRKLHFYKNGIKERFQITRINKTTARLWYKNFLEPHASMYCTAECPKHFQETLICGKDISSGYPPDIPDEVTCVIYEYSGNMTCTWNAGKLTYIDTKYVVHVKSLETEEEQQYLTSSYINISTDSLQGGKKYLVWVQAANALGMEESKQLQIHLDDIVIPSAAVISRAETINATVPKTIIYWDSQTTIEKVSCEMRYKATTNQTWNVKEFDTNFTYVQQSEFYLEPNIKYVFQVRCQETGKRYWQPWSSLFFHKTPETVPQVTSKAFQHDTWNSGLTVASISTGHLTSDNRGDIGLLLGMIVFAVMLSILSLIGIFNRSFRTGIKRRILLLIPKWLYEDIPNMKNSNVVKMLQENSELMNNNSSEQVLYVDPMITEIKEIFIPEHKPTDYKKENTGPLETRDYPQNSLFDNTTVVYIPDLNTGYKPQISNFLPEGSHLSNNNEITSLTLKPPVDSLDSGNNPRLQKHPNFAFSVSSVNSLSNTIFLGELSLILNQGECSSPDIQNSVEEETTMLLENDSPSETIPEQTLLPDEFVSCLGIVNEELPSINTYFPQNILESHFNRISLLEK
The test can be described thus: biochemical. The settings on record: for Emax: read-out: % displacement (hIL-23R NIuc). A digest of the protocol: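 Membranes from HEK293 cells stably expressing Nluc-tagged human IL-23R were incubated 2 h at room temperature with test compound and a fluorophore-labelled tracer. After substrate addition, loss of BRET (TAMRA over luciferase emission) reported tracer displacement. A 4PL fit gave IC50 values.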

Where a SMILES comes first, the peptide text is derived from it. Bridges are numbered along the chain shown (N, C = ends). [ ]: non-standard residue; d: D form. The star is where a group is joined. NH(2-(3-pyridyl)ethyl) = c1cncc(CCN*)c1; 2Nal = N[C@@H](Cc1ccc2ccccc2c1)C(=O)O; AEF = NCCOc1ccc(C[C@H](N)C(=O)O)cc1; 3Pal = N[C@@H](Cc1cccnc1)C(=O)O; β3hE = N[C@@H](CCC(=O)O)CC(=O)O; αMeL = CC(C)C[C@](C)(N)C(=O)O

On to `COc1ccc(C[C@@H]2NC(=O)[C@@H]3CCC(=O)N[C@@H](CCCCNC(=O)CC[C@@H](C(=O)N[C@@H](CCCCNC(=O)CCc4ccccn4)C(N)=O)NC(=O)[C@](C)(CC(C)C)NC(=O)[C@H](Cc4ccc5ccccc5c4)NC2=O)C(=O)N[C@@H]([C@@H](C)O)C(=O)N[C@@H](C(C)C)C(=O)N[C@@H](Cc2c[nH]c4ccccc24)C(=O)N[C@@H](CCC(N)=O)C(=O)N3)cc1` [Compound 49, K(1c)(6c)^†TVWQE(6c)[Y(Me)][2-Nal][2-Me-Leu]E(1c)[K(2-pyridylpropionyl)]-[NH2]], for which the IC50 (in general, the midpoint of a concentration-inhibition curve) turned out to be 0.82 µM and the Emax amounted to 96%.
Consider `COc1ccc(C[C@@H]2NC(=O)[C@@H]3CCC(=O)N[C@@H](CCCCNC(=O)CC[C@@H](C(=O)N[C@@H](CCCCNC(=O)Cc4cccnc4)C(N)=O)NC(=O)[C@](C)(CC(C)C)NC(=O)[C@H](Cc4ccc5ccccc5c4)NC2=O)C(=O)N[C@@H]([C@@H](C)O)C(=O)N[C@@H](C(C)C)C(=O)N[C@@H](Cc2c[nH]c4ccccc24)C(=O)N[C@@H](CCC(N)=O)C(=O)N3)cc1` [Compound 51, K(1c)(6c)^†TVWQE(6c)[Y(Me)][2-Nal][2-Me-Leu]E(1c)[K(3-pyridylacetyl)]-[NH2]], for which the IC50 was found to be 0.3 µM and the Emax stood at 102%.
As for `COc1ccc(C[C@@H]2NC(=O)[C@@H]3CCC(=O)N[C@@H](CCCCNC(=O)CC[C@@H](C(=O)N[C@@H](CCCCNC(=O)CCc4cccnc4)C(N)=O)NC(=O)[C@](C)(CC(C)C)NC(=O)[C@H](Cc4ccc5ccccc5c4)NC2=O)C(=O)N[C@@H]([C@@H](C)O)C(=O)N[C@@H](C(C)C)C(=O)N[C@@H](Cc2c[nH]c4ccccc24)C(=O)N[C@@H](CCC(N)=O)C(=O)N3)cc1` [Compound 52, K(1c)(6c)^†TVWQE(6c)[Y(Me)][2-Nal][2-Me-Leu]E(1c)[K(3-pyridylpropionyl)]-[NH2]], the IC50 was 0.12 µM and the Emax worked out at 101%.
For `COc1ccc(C[C@@H]2NC(=O)[C@@H]3CCC(=O)N[C@@H](CCCCNC(=O)CC[C@@H](C(=O)N[C@@H](CCCCNC(=O)c4ccncc4)C(N)=O)NC(=O)[C@](C)(CC(C)C)NC(=O)[C@H](Cc4ccc5ccccc5c4)NC2=O)C(=O)N[C@@H]([C@@H](C)O)C(=O)N[C@@H](C(C)C)C(=O)N[C@@H](Cc2c[nH]c4ccccc24)C(=O)N[C@@H](CCC(N)=O)C(=O)N3)cc1` [Compound 53, K(1c)(6c)^†TVWQE(6c)[Y(Me)][2-Nal][2-Me-Leu]E(1c)[K(isonicotinyl)]-[NH2]], the IC50 is 0.42 µM and the Emax is 95%.
For `COc1ccc(C[C@@H]2NC(=O)[C@@H]3CCC(=O)N[C@@H](CCCCNC(=O)CC[C@@H](C(=O)N[C@@H](CCCCNC(=O)Cc4ccncc4)C(N)=O)NC(=O)[C@](C)(CC(C)C)NC(=O)[C@H](Cc4ccc5ccccc5c4)NC2=O)C(=O)N[C@@H]([C@@H](C)O)C(=O)N[C@@H](C(C)C)C(=O)N[C@@H](Cc2c[nH]c4ccccc24)C(=O)N[C@@H](CCC(N)=O)C(=O)N3)cc1` [Compound 54, K(1c)(6c)^†TVWQE(6c)[Y(Me)][2-Nal][2-Me-Leu]E(1c)[K(4-pyridylacetyl)]-[NH2]] the same measures were 0.29 µM and 105%.
As to `COc1ccc(C[C@@H]2NC(=O)[C@@H]3CCC(=O)N[C@@H](CCCCNC(=O)CC[C@@H](C(=O)N[C@@H](CCCCNC(=O)CCc4ccncc4)C(N)=O)NC(=O)[C@](C)(CC(C)C)NC(=O)[C@H](Cc4ccc5ccccc5c4)NC2=O)C(=O)N[C@@H]([C@@H](C)O)C(=O)N[C@@H](C(C)C)C(=O)N[C@@H](Cc2c[nH]c4ccccc24)C(=O)N[C@@H](CCC(N)=O)C(=O)N3)cc1` [Compound 55, K(1c)(6c)^†TVWQE(6c)[Y(Me)][2-Nal][2-Me-Leu]E(1c)[K(4-pyridylpropionyl)]-[NH2]], the IC50 is 0.14 µM and the Emax stood at 100%.
Take `COc1ccc(C[C@@H]2NC(=O)[C@@H]3CCC(=O)N[C@@H](CCCCNC(=O)CC[C@@H](C(=O)N[C@@H](CCCCNC(=O)c4cncnc4)C(N)=O)NC(=O)[C@](C)(CC(C)C)NC(=O)[C@H](Cc4ccc5ccccc5c4)NC2=O)C(=O)N[C@@H]([C@@H](C)O)C(=O)N[C@@H](C(C)C)C(=O)N[C@@H](Cc2c[nH]c4ccccc24)C(=O)N[C@@H](CCC(N)=O)C(=O)N3)cc1` [Compound 56, K(1c)(6c)^†TVWQE(6c)[Y(Me)][2-Nal][2-Me-Leu]E(1c)[K(3,5-pyrimidine)]-[NH2]]: the IC50 came to 0.21 µM and the Emax was 98%.
In the same order, the values of `COc1ccc(C[C@@H]2NC(=O)[C@@H]3CCC(=O)N[C@@H](CCCCNC(=O)CC[C@@H](C(=O)N[C@@H](CCCCNC(=O)Cc4ccnc(F)c4)C(N)=O)NC(=O)[C@](C)(CC(C)C)NC(=O)[C@H](Cc4ccc5ccccc5c4)NC2=O)C(=O)N[C@@H]([C@@H](C)O)C(=O)N[C@@H](C(C)C)C(=O)N[C@@H](Cc2c[nH]c4ccccc24)C(=O)N[C@@H](CCC(N)=O)C(=O)N3)cc1` [Compound 57, K(1c)(6c)^†TVWQE(6c)[Y(Me)][2-Nal][2-Me-Leu]E(1c)[K(4-pyridyl-3-fluoroacetyl)]-[NH2]] are 0.79 µM and 93%.
In turn, `COc1ccc(C[C@@H]2NC(=O)[C@@H]3CCC(=O)N[C@@H](CCCCNC(=O)CC[C@@H](C(=O)N[C@@H](CCCCNC(=O)Cc4ncc[nH]4)C(N)=O)NC(=O)[C@](C)(CC(C)C)NC(=O)[C@H](Cc4ccc5ccccc5c4)NC2=O)C(=O)N[C@@H]([C@@H](C)O)C(=O)N[C@@H](C(C)C)C(=O)N[C@@H](Cc2c[nH]c4ccccc24)C(=O)N[C@@H](CCC(N)=O)C(=O)N3)cc1` [Compound 58, K(1c)(6c)^†TVWQE(6c)[Y(Me)][2-Nal][2-Me-Leu]E(1c)[K(Imidazoleacetyl)]-[NH2]] returned an IC50 of 0.55 µM.
Same read-out and setting: then `COc1ccc(C[C@@H]2NC(=O)[C@@H]3CCC(=O)N[C@@H](CCCCNC(=O)CC[C@@H](C(=O)N[C@@H](CCCCNC(=O)CCc4ncc[nH]4)C(N)=O)NC(=O)[C@](C)(CC(C)C)NC(=O)[C@H](Cc4ccc5ccccc5c4)NC2=O)C(=O)N[C@@H]([C@@H](C)O)C(=O)N[C@@H](C(C)C)C(=O)N[C@@H](Cc2c[nH]c4ccccc24)C(=O)N[C@@H](CCC(N)=O)C(=O)N3)cc1` [Compound 59, K(1c)(6c)^†TVWQE(6c)[Y(Me)][2-Nal][2-Me-Leu]E(1c)[K(Imidazolepropanoyl)]-[NH2]], with 0.33 µM.
Regarding `CC[C@H](C)[C@@H]1NC(=O)[C@@H]2CCCCNC(=O)CC[C@@H](CC(=O)N[C@@H](Cc3cccnc3)C(=O)NC)NC(=O)[C@](C)(CC(C)C)NC(=O)[C@H](Cc3ccc4ccccc4c3)NC(=O)[C@H](Cc3ccc(OCCN)cc3)NC(=O)[C@H](CCC(=O)N2)NC(=O)[C@H](CCC(N)=O)NC(=O)[C@H](Cc2c[nH]c3ccccc23)NC(=O)[C@H](C(C)C)NC1=O` [Compound 61, K(1c)(6c)^†IVWQE(6c)[Y(2-aminoethoxy)][2-Nal][2-Me-Leu][beta-hGlu](cyclo1)[3-(3-Pyridyl)-Ala]-[NHMe]] (KIVWQE[AEF][2Nal][αMeL][β3hE][3Pal]-NHMe; lactam 1-10, N-6), the IC50 was determined as 0.011 µM and the Emax stood at 99%.
Consider `CC[C@H](C)[C@@H]1NC(=O)[C@@H]2CCCCNC(=O)CC[C@@H](C(=O)N3CCC[C@H]3C(=O)N[C@@H](Cc3cccnc3)C(=O)NC)NC(=O)[C@](C)(CC(C)C)NC(=O)[C@H](Cc3ccc4ccccc4c3)NC(=O)[C@H](Cc3ccc(OCCN)cc3)NC(=O)[C@H](CCC(=O)N2)NC(=O)[C@H](CCC(N)=O)NC(=O)[C@H](Cc2c[nH]c3ccccc23)NC(=O)[C@H](C(C)C)NC1=O` [Compound 63, K(1c)(6c)^†IVWQE(6c)[Y(2-aminoethoxy)][2-Nal][2-Me-Leu]E(1c)P[3-(3-Pyridyl)-Ala]-[NHMe]] (KIVWQE[AEF][2Nal][αMeL]EP[3Pal]-NHMe; lactam 1-10, N-6), for which the “% displacement (hIL-23R NIuc)” value came out at 98% and the IC50 was determined as 0.15 µM.
In the case of `CC[C@H](C)[C@@H]1NC(=O)[C@@H]2CCCCNC(=O)CC[C@@H](CC(=O)NCCc3cccnc3)NC(=O)[C@](C)(CC(C)C)NC(=O)[C@H](Cc3ccc4ccccc4c3)NC(=O)[C@H](Cc3ccc(OCCN)cc3)NC(=O)[C@H](CCC(=O)N2)NC(=O)[C@H](CCC(N)=O)NC(=O)[C@H](Cc2c[nH]c3ccccc23)NC(=O)[C@H](C(C)C)NC1=O` [Compound 65, K(1c)(6c)^†IVWQE(6c)[Y(2-aminoethoxy)][2-Nal][2-Me-Leu][beta-hGlu](1c)-[NH-2-(pyridin-3-yl)ethyl]] (KIVWQE[AEF][2Nal][αMeL][β3hE]-{NH(2-(3-pyridyl)ethyl)}; lactam 1-10, N-6), the IC50 turned out to be 0.14 µM and the Emax was found to be 99%.
For `CC[C@H](C)[C@@H]1NC(=O)[C@@H]2CCCCNC(=O)CC[C@@H](C(=O)N[C@@H](CCN)C(=O)NCCCc3cccnc3)NC(=O)[C@](C)(CC(C)C)NC(=O)[C@H](Cc3ccc4ccccc4c3)NC(=O)[C@H](Cc3ccc(OCCN)cc3)NC(=O)[C@H](CCC(=O)N2)NC(=O)[C@H](CCC(N)=O)NC(=O)[C@H](Cc2c[nH]c3ccccc23)NC(=O)[C@H](C(C)C)NC1=O` [Compound 67, K(1c)(6c)^†IVWQE(6c)[Y(2-aminoethoxy)][2-Nal][2-Me-Leu]E(1c)[Dab]-[NH-3-(pyridin-3-yl)propyl]] the same measures were 0.0026 µM and 102%.
